Data from PubChem BioAssay AID2060891 (Molecular Pharmacology Branch, DTP, NCI, 2025).
pIC50: −log10 of the molar value.

Test system: K98450-129-R-PDC complex spheroid growth, percent test/control
Assay: Anticancer human tumor K98450-129-R-PDC patient-derived colon adenocarcinoma cell line growth inhibition [RAS]
Settings: for pIC50: curve of first compound; for viability, T/C: stronger effect = lower value
In short: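 Agents were tested in combination matrices in half-log decrements from a top concentration at or near clinical Cmax (10 microM if undetermined). Targets were multi-cell spheroids of tumour lines plus HUVEC and MSC stromal cells.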
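Note: spheroids exposed to agents for seven days before the viability readout.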
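Throughout, for viability, T/C: luminescence used as a proxy for viable cell amount.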

Question: `CC(C)NCC(C(=O)N1CCN(c2ncnc3c2C(C)CC3O)CC1)c1ccc(Cl)cc1` (configuration not stated) + C=CC(=O)N1CCN(c2nc(OCC3CCCN3C)nc3c(F)c(-c4nc(N)cc(C)c4C(F)(F)F)c(Cl)cc23)C(C)C1 was tested. Which pIC50 (second compound 0.00316 µM) did it give?
Answer: < 5.00

Question: And the pIC50 (second compound 0.01 µM)?
Answer: < 5.00

Question: And the pIC50 (second compound 0.0316 µM)?
Answer: < 5.00

Question: And the pIC50 (second compound 0.1 µM)?
Answer: < 5.00

Question: What about the pIC50 (second compound 0.316 µM) of the same compound?
Answer: > 7.50

Question: What about the pIC50 (second compound 1 µM) of the same compound?
Answer: > 7.50

Question: What about the viability, T/C (second compound 0.00316 µM, first compound 0.0316 µM) of the same compound?
Answer: 94.4%

Question: And the viability, T/C (second compound 0.00316 µM, first compound 0.1 µM)?
Answer: 97.7%

Question: What about the viability, T/C (second compound 0.00316 µM, first compound 0.316 µM) of the same compound?
Answer: 94.8%

Question: And the viability, T/C (second compound 0.00316 µM, first compound 1 µM)?
Answer: 93.2%

Question: And the viability, T/C (second compound 0.00316 µM, first compound 3.16 µM)?
Answer: 91.4%

Question: What about the viability, T/C (second compound 0.00316 µM, first compound 10 µM) of the same compound?
Answer: 91.2%

Question: What about the viability, T/C (second compound 0.01 µM, first compound 0.0316 µM) of the same compound?
Answer: 89.3%

Question: And the viability, T/C (second compound 0.01 µM, first compound 0.1 µM)?
Answer: 81.3%

Question: And the viability, T/C (second compound 0.01 µM, first compound 0.316 µM)?
Answer: 85.1%

Question: And the viability, T/C (second compound 0.01 µM, first compound 1 µM)?
Answer: 84.6%

Question: And the viability, T/C (second compound 0.01 µM, first compound 3.16 µM)?
Answer: 83.8%

Question: And the viability, T/C (second compound 0.01 µM, first compound 10 µM)?
Answer: 85.3%

Question: What about the viability, T/C (second compound 0.0316 µM, first compound 0.0316 µM) of the same compound?
Answer: 70%

Question: What about the viability, T/C (second compound 0.0316 µM, first compound 0.1 µM) of the same compound?
Answer: 63.7%

Question: And the viability, T/C (second compound 0.0316 µM, first compound 0.316 µM)?
Answer: 65.9%

Question: And the viability, T/C (second compound 0.0316 µM, first compound 1 µM)?
Answer: 67.3%

Question: And the viability, T/C (second compound 0.0316 µM, first compound 3.16 µM)?
Answer: 75%

Question: And the viability, T/C (second compound 0.0316 µM, first compound 10 µM)?
Answer: 75.5%

Question: And the viability, T/C (second compound 0.1 µM, first compound 0.0316 µM)?
Answer: 53.1%

Question: And the viability, T/C (second compound 0.1 µM, first compound 0.1 µM)?
Answer: 52.5%

Question: What about the viability, T/C (second compound 0.1 µM, first compound 0.316 µM) of the same compound?
Answer: 53.7%

Question: And the viability, T/C (second compound 0.1 µM, first compound 1 µM)?
Answer: 57%

Question: And the viability, T/C (second compound 0.1 µM, first compound 3.16 µM)?
Answer: 54.8%

Question: And the viability, T/C (second compound 0.1 µM, first compound 10 µM)?
Answer: 49.6%

Question: What about the viability, T/C (second compound 0.316 µM, first compound 0.0316 µM) of the same compound?
Answer: 38.3%

Question: And the viability, T/C (second compound 0.316 µM, first compound 0.1 µM)?
Answer: 42.1%

Question: And the viability, T/C (second compound 0.316 µM, first compound 0.316 µM)?
Answer: 41%

Question: And the viability, T/C (second compound 0.316 µM, first compound 1 µM)?
Answer: 43.7%

Question: What about the viability, T/C (second compound 0.316 µM, first compound 3.16 µM) of the same compound?
Answer: 42.6%

Question: And the viability, T/C (second compound 0.316 µM, first compound 10 µM)?
Answer: 36.4%

Question: And the viability, T/C (second compound 1 µM, first compound 0.0316 µM)?
Answer: 31.4%

Question: And the viability, T/C (second compound 1 µM, first compound 0.1 µM)?
Answer: 32.7%

Question: What about the viability, T/C (second compound 1 µM, first compound 0.316 µM) of the same compound?
Answer: 35.9%

Question: What about the viability, T/C (second compound 1 µM, first compound 1 µM) of the same compound?
Answer: 32.1%

Question: And the viability, T/C (second compound 1 µM, first compound 3.16 µM)?
Answer: 32.7%

Question: What about the viability, T/C (second compound 1 µM, first compound 10 µM) of the same compound?
Answer: 29%
